Some test systems named below: OVCAR-3 ovarian; NCI-H522 lung; OVCAR-5 ovarian; SF-295 CNS; OVCAR-8 ovarian; MCF7 breast; NCI/ADR-RES ovarian; HCT-15 colon; NCI-H23 lung; KM12 colon; MDA-MB-231 breast; BT-549 breast; HS 578T breast; HCT-116 colon; HOP-92 NSCLC; HL-60(TB) leukemia; CCRF-CEM leukemia; RPMI-8226 leukemia; SN12C renal.
Common to all, as to test: NCI tumour cell line growth inhibition, 48 h

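Values below derive from 48-hour exposures of cells grown in 96-well plates, with endpoints linearly interpolated between the two concentrations bracketing the appropriate inhibition level. The concentration for full growth arrest is given as TGI.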 A value given as a limit tells only on which side of the number the result lay.

For the compound `O=[N+]([O-])c1ccc(O)c(C=NCC2CCCN3CCCCC23)c1` (stereo unspecified), the TGI in the test with OVCAR-3 ovarian, in the test with NCI-H522 lung, in the test on OVCAR-5 ovarian, in the test on SF-295 CNS, in the test on OVCAR-8 ovarian and in the test on MCF7 breast was over 100 µM in each case. Further, the TGI in the test with NCI/ADR-RES ovarian, with HCT-15 colon, in the test on NCI-H23 lung, in the test with KM12 colon, with MDA-MB-231 breast and in the test with BT-549 breast was over 100 µM in each case. Further, the TGI is 46.6 µM in the test on HS 578T breast and over 100 µM with HCT-116 colon.
Consider `COc1cc2cc3c4c(cc(OC)c(OC)c4c2cc1OC)CCN3C(=O)CCC(=O)O`, for which the TGI in the test with OVCAR-3 ovarian, in the test with HOP-92 NSCLC, with HL-60(TB) leukemia, in the test with NCI-H522 lung, in the test with OVCAR-5 ovarian and in the test on SF-295 CNS was over 100 µM each time. The TGI with CCRF-CEM leukemia, in the test with NCI-H23 lung, in the test on RPMI-8226 leukemia, with KM12 colon, in the test on HCT-116 colon and in the test on SN12C renal was over 100 µM throughout.
For the compound `CC(C)(O)CCc1ccc(O)c2c(=O)c3c(O)c4c(cc3oc12)O[C@H]1OC=C[C@@]41O`, the TGI was under 0.01 µM in the test with OVCAR-3 ovarian; 14.8 µM in the test with HOP-92 NSCLC; 18.3 µM with NCI-H522 lung; 8.74 µM in the test on OVCAR-5 ovarian; 25.3 µM with SF-295 CNS; over 100 µM with CCRF-CEM leukemia. The TGI in the test on OVCAR-8 ovarian was 0.273 µM; with MCF7 breast it was under 0.01 µM; in the test on NCI/ADR-RES ovarian it was 0.298 µM; in the test with HCT-15 colon, 14.6 µM; in the test on NCI-H23 lung, 0.64 µM; with RPMI-8226 leukemia, over 33.6 µM. Besides, the TGI was 11.3 µM in the test with KM12 colon; over 100 µM in the test on MDA-MB-231 breast; over 62.5 µM in the test on BT-549 breast; 41.6 µM in the test with HS 578T breast; 4.52 µM in the test with HCT-116 colon; over 100 µM in the test with SN12C renal.
`COC1=CC(=O)NCCN1`: the TGI with OVCAR-3 ovarian is over 100 µM; with HOP-92 NSCLC it was over 100 µM; in the test on HL-60(TB) leukemia it was 41 µM; in the test on NCI-H522 lung, over 100 µM; in the test with OVCAR-5 ovarian it was over 100 µM; with SF-295 CNS it was over 100 µM. For the same compound, the TGI in the test on CCRF-CEM leukemia, in the test with OVCAR-8 ovarian, in the test on HCT-15 colon, with NCI-H23 lung, with KM12 colon and in the test with HCT-116 colon was over 100 µM throughout. Besides, the TGI in the test on SN12C renal was over 100 µM.
Regarding `O=C1CCCC2=C1CC1=C(CCCC1=O)N2c1cccc([N+](=O)[O-])c1`, the TGI in the test on OVCAR-3 ovarian, in the test with HL-60(TB) leukemia, in the test with OVCAR-5 ovarian, with CCRF-CEM leukemia, in the test on OVCAR-8 ovarian and in the test on MCF7 breast was over 100 µM throughout. Besides, the TGI with NCI/ADR-RES ovarian, in the test on HCT-15 colon, with NCI-H23 lung, in the test on RPMI-8226 leukemia, with KM12 colon and in the test on BT-549 breast was over 100 µM each time. In addition, the TGI in the test with HS 578T breast and with SN12C renal was over 100 µM in each case.
On to `COC[C@@H](N=CN1CCc2cc(OC)c(OC)cc2C1)C(C)(C)C`, for which the TGI in the test with OVCAR-3 ovarian, with HOP-92 NSCLC, with HL-60(TB) leukemia, in the test with NCI-H522 lung, in the test on SF-295 CNS and with CCRF-CEM leukemia was over 100 µM throughout. Moreover, the TGI in the test with OVCAR-8 ovarian, with HCT-15 colon, in the test on NCI-H23 lung, in the test on RPMI-8226 leukemia, in the test with KM12 colon and in the test on HCT-116 colon was over 100 µM in each case. This compound had a TGI in the test on SN12C renal of over 100 µM.
On to `Cc1cc(C)c(C(=O)/C=C/c2ccccc2)c(C)c1`, for which the TGI in the test with HOP-92 NSCLC was 58.4 µM; in the test on HL-60(TB) leukemia it was over 100 µM; in the test on NCI-H522 lung, 46.1 µM; in the test on SF-295 CNS, 48.8 µM; in the test on CCRF-CEM leukemia, over 100 µM; in the test with OVCAR-8 ovarian, 30 µM. Also, the TGI in the test on HCT-15 colon was 51.3 µM; in the test with NCI-H23 lung, 97.9 µM; with RPMI-8226 leukemia, 90.5 µM; in the test with KM12 colon it was over 100 µM; in the test on HCT-116 colon, 78.2 µM; with SN12C renal it was 34.7 µM.
In the case of `Clc1cccc2c1OCC1C(c3ccccc3)=NN(c3ccccc3)C21` (stereo unspecified), the TGI in the test on OVCAR-3 ovarian, with HOP-92 NSCLC, in the test with HL-60(TB) leukemia, in the test on NCI-H522 lung, with OVCAR-5 ovarian and in the test on SF-295 CNS was over 100 µM each time. The TGI in the test with CCRF-CEM leukemia, in the test with OVCAR-8 ovarian, with NCI-H23 lung, in the test on RPMI-8226 leukemia, in the test on KM12 colon and in the test on HCT-116 colon was over 100 µM throughout.
For `CCCCc1c2c(nc3c1CC/C(=C\c1ccc([N+](=O)[O-])cc1)C3=O)CCCC2`, the TGI was determined as 3.14 µM with OVCAR-3 ovarian; 2.84 µM in the test with NCI-H522 lung; 4.07 µM in the test on SF-295 CNS; 6.68 µM with CCRF-CEM leukemia; 3.47 µM with OVCAR-8 ovarian; 1.16 µM in the test on HCT-15 colon. For the same compound, the TGI in the test with RPMI-8226 leukemia is 5.69 µM; in the test with KM12 colon, 3.52 µM; in the test with HCT-116 colon it was 3.22 µM; in the test on SN12C renal it was 3.34 µM.
On to `CC(=O)OC1[C@H](n2ccnc2)C[C@H]2[C@@H]3CC=C4CC(N5CCCC5)CC[C@]4(C)[C@H]3CC[C@]12C` (stereo partly specified), for which the TGI was over 100 µM in the test on OVCAR-3 ovarian; over 100 µM with HOP-92 NSCLC; 81.3 µM in the test with HL-60(TB) leukemia; over 100 µM in the test with NCI-H522 lung; over 100 µM in the test with OVCAR-5 ovarian; 41 µM in the test with SF-295 CNS. Besides, the TGI with CCRF-CEM leukemia, in the test on OVCAR-8 ovarian, with MCF7 breast, in the test with NCI/ADR-RES ovarian, in the test on HCT-15 colon and with NCI-H23 lung was over 100 µM in each case. In addition, the TGI with RPMI-8226 leukemia, with KM12 colon, in the test on MDA-MB-231 breast, in the test on HS 578T breast, in the test on HCT-116 colon and in the test on SN12C renal was over 100 µM in each case.

Values taken from PubChem BioAssay (NCI).
